# According to patent US9006250B2, “4-amino-6-(heterocyclic)picolinates and 6-amino-2-(heterocyclic)pyrimidine-4-carboxylates and their use as herbicides” (Dow AgroSciences, LLC, priority 2013, dated 2015):
# How the values were obtained:
# Assay in all cases: Postemergence herbicidal activity in direct seeded rice
# Format in all cases: in vivo
# [1] = tested on: CYPES: yellow nutsedge, Cyperus esculentus
# Text: (§1) Seeds or nutlets of the desired test plant species were planted in a soil matrix prepared by mixing a loam soil (43 percent silt, 19 percent clay, and 38 percent sand, with a pH of about 8.1 and an organic matter content of about 1.5 percent) and river sand in an 80 to 20 ratio. The soil matrix was contained in plastic pots with a surface area of 139.7 cm^2. When required to ensure good germination and healthy plants, a fungicide treatment and/or other chemical or physical treatment was applied. The plants were grown for 10-17 d in a greenhouse with an approximate 14-h photoperiod which was maintained at about 29° C. during the day and 26° C. during the night. Nutrients and water were added on a regular basis and supplemental lighting was provided with overhead metal halide 1000-Watt lamps as necessary. The plants were employed for testing when they reached the second or third true leaf stage. A weighed amount, determined by the highest rate to be tested, of each test compound was placed in 25 mL glass vials and dissolved in a volume of 97:3 v/v acetone-DMSO to obtain 12× stock solutions. […] The concentrated stock solutions were added to the spray solutions so that the final acetone and DMSO concentrations were 16.2% and 0.5%, respectively. Spray solutions were diluted to the appropriate final concentrations with the addition of 10 mL of an aqueous mixture of 1.5% (v/v) Agri-dex crop oil concentrate. The final spray solutions contained 1.25% (v/v) Agri-dex crop oil concentrate. Compound requirements are based upon a 12 mL application volume at a rate of 187 L/ha. Formulated compounds were applied to the plant material with an overhead Mandel track sprayer equipped with […] nozzles calibrated to deliver 187 L/ha over an application area of 0.503 square meters (m^2) at a spray height of 18 inches ([…]) above average plant canopy height. Control plants were sprayed in the same manner with the solvent blank. The treated plants and control plants were placed in a greenhouse as described above and watered by sub-irrigation to prevent wash-off of the test compounds. After 20-22 days, the condition of the test plants, compared with that of the untreated plants, was determined visually and scored on a scale of 0 to 100 percent where 0 corresponds to no injury and 100 corresponds to complete kill. By applying the well-accepted probit analysis as described by J. Berkson in […], 48, 565 (1953) and by D. Finney in “Probit Analysis” Cambridge University Press (1952), the above data can be used to calculate GR20, GR50, GR80 and GR90 values, which are defined as growth reduction factors that correspond to the effective dose of herbicide required to kill or control 20 percent, 50 percent, 80 percent or 90 percent, respectively, of a target plant.
# [2] = tested on: DIGSA: large crabgrass, Digitaria sanguinalis
# Text: as §1
# [3] = tested on: BRAPP: broadleaf signalgrass, Brachiaria platyphylla
# Text: as §1
# [4] = tested on: SEBEX: hemp sesbania, Sesbania exaltata
# Text: as §1
# [5] = dose for 50 percent control, probit analysis
# [6] = dose for 80 percent control, probit analysis
# [7] = dose for 90 percent control, probit analysis
smiles,measurement,setting,value
COC(=O)c1nc(-c2ccc3nsnc3c2)c(F)c(N)c1Cl [Compound 11],Visual Growth Reduction (%) 21 Days After Application CYPES,[1]; 17.5 g ai/ha,D (60-74)
same,Visual Growth Reduction (%) 21 Days After Application CYPES,[1]; 35 g ai/ha,G (0-29)
same,Visual Growth Reduction (%) 21 Days After Application CYPES,[1]; 70 g ai/ha,E (45-59)
same,GR50 CYPES,[1]; [5],>70 g ai/ha
same,GR80 CYPES,[1]; [6],>70 g ai/ha
same,GR90 CYPES,[1]; [7],>70 g ai/ha
same,Visual Growth Reduction (%) 21 Days After Application DIGSA,[2]; 17.5 g ai/ha,E (45-59)
same,Visual Growth Reduction (%) 21 Days After Application DIGSA,[2]; 35 g ai/ha,E (45-59)
same,Visual Growth Reduction (%) 21 Days After Application DIGSA,[2]; 70 g ai/ha,D (60-74)
same,GR50 DIGSA,[2]; [5],11 g ai/ha
same,GR80 DIGSA,[2]; [6],628 g ai/ha
same,GR90 DIGSA,[2]; [7],5310 g ai/ha
same,Visual Growth Reduction (%) 21 Days After Application BRAPP,[3]; 17.5 g ai/ha,G (0-29)
same,Visual Growth Reduction (%) 21 Days After Application BRAPP,[3]; 35 g ai/ha,G (0-29)
same,Visual Growth Reduction (%) 21 Days After Application BRAPP,[3]; 70 g ai/ha,E (45-59)
same,GR50 BRAPP,[3]; [5],>70 g ai/ha
same,GR80 BRAPP,[3]; [6],>70 g ai/ha
same,GR90 BRAPP,[3]; [7],>70 g ai/ha
same,Visual Growth Reduction (%) 21 Days After Application SEBEX,[4]; 17.5 g ai/ha,C (75-84)
same,Visual Growth Reduction (%) 21 Days After Application SEBEX,[4]; 35 g ai/ha,A (95-100)
same,Visual Growth Reduction (%) 21 Days After Application SEBEX,[4]; 70 g ai/ha,A (95-100)
same,GR50 SEBEX,[4]; [5],4 g ai/ha
same,GR80 SEBEX,[4]; [6],11 g ai/ha
same,GR90 SEBEX,[4]; [7],19 g ai/ha
